#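 Method: 48-hour compound exposure of cells in 96-well plates, five concentrations, linear interpolation of endpoints. The concentration for 50% growth inhibition is given as GI50. TGI is the concentration that stops growth completely.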
# Legend:
# Assay in all cases: NCI anticancer screen, dose series, 48 h
# [1] = test system: SK-MEL-2 melanoma
# [2] = test system: SF-539 CNS
# [3] = test system: OVCAR-3 ovarian
# [4] = test system: LOX IMVI melanoma
# [5] = test system: UACC-257 melanoma
# [6] = test system: MCF7 breast
# [7] = test system: MOLT-4 leukemia
# [8] = test system: CAKI-1 renal
# [9] = test system: NCI/ADR-RES ovarian
# [10] = test system: SF-295 CNS
# [11] = test system: UACC-62 melanoma
# [12] = test system: T-47D breast
# [13] = test system: SF-268 CNS
# [14] = test system: A549 NSCLC
# [15] = test system: PC-3 prostate
# [16] = test system: MDA-MB-231 breast
# [17] = test system: HCT-116 colon
# [18] = test system: HOP-62 NSCLC
# [19] = test system: NCI-H226 lung
# [20] = test system: HCC-2998 colon
# [21] = test system: EKVX NSCLC
# [22] = test system: SK-MEL-5 melanoma
# [23] = test system: MDA-MB-435
# [24] = test system: RXF 393 renal
# [25] = test system: UO-31 renal
# [26] = test system: HCT-15 colon
# [27] = test system: DU-145 prostate
# [28] = test system: SNB-19 CNS
# [29] = test system: SR leukemia
# [30] = test system: 786-0 renal
# [31] = test system: NCI-H522 lung
# [32] = test system: NCI-H23 lung
# [33] = test system: SNB-75 CNS
# [34] = test system: SK-MEL-28 melanoma
# [35] = test system: KM12 colon
# [36] = test system: RPMI-8226 leukemia
# [37] = test system: TK-10 renal
# [38] = test system: BT-549 breast
# [39] = test system: OVCAR-4 ovarian
# [40] = test system: HT29 colon
# [41] = test system: HOP-92 NSCLC
# [42] = test system: MALME-3M melanoma
# [43] = test system: HL-60(TB) leukemia
# [44] = test system: OVCAR-8 ovarian
# [45] = test system: IGROV1 ovarian
# [46] = test system: OVCAR-5 ovarian
# [47] = test system: SW-620 colon
# [48] = test system: M14 melanoma
# [49] = test system: HS 578T breast
# [50] = test system: ACHN renal
# [51] = test system: K-562 leukemia
# [52] = test system: SN12C renal
# [53] = test system: CCRF-CEM leukemia
# [54] = test system: NCI-H460 lung
# [55] = test system: U251 CNS
# [56] = test system: SK-OV-3 ovarian
# [57] = test system: A498 renal
# [58] = test system: COLO 205 colon
structure (smiles),measurement,setting,value
C[C@H](CCOc1cccc(CC(=O)O)c1)N(Cc1cccc(C(F)(F)F)c1Cl)CC(c1ccccc1)c1ccccc1,GI50,[1],5.84 µM
same,TGI,[1],28.2 µM
same,GI50,[2],6.14 µM
same,TGI,[2],20.4 µM
same,GI50,[3],4.77 µM
same,TGI,[3],15.9 µM
same,GI50,[4],5.13 µM
same,TGI,[4],18.5 µM
same,GI50,[5],10.2 µM
same,TGI,[5],25.2 µM
same,GI50,[6],3.53 µM
same,TGI,[6],17.9 µM
same,GI50,[7],4.95 µM
same,TGI,[7],23.1 µM
same,GI50,[8],5.79 µM
same,TGI,[8],18.2 µM
same,GI50,[9],6.97 µM
same,TGI,[9],21.3 µM
same,GI50,[10],4.44 µM
same,TGI,[10],18.6 µM
same,GI50,[11],2.72 µM
same,TGI,[11],8.44 µM
same,GI50,[12],4.47 µM
same,TGI,[12],33.6 µM
same,GI50,[13],5.28 µM
same,TGI,[13],20.3 µM
same,GI50,[14],3.94 µM
same,TGI,[14],18.9 µM
same,GI50,[15],4.64 µM
same,TGI,[15],17.4 µM
same,GI50,[16],10.5 µM
same,TGI,[16],25.1 µM
same,GI50,[17],3.68 µM
same,TGI,[17],13.6 µM
same,GI50,[18],6.26 µM
same,TGI,[18],26.4 µM
same,GI50,[19],4.49 µM
same,TGI,[19],21.5 µM
same,GI50,[20],5.15 µM
same,TGI,[20],18 µM
same,GI50,[21],4.04 µM
same,TGI,[21],19.1 µM
same,GI50,[22],3.95 µM
same,TGI,[22],14.6 µM
same,GI50,[23],7.02 µM
same,TGI,[23],20.2 µM
same,GI50,[24],4.18 µM
same,TGI,[24],16.2 µM
same,GI50,[25],2.36 µM
same,TGI,[25],14.7 µM
same,GI50,[26],3.25 µM
same,TGI,[26],12.3 µM
same,GI50,[27],7.89 µM
same,TGI,[27],20.4 µM
same,GI50,[28],6.25 µM
same,TGI,[28],19.8 µM
same,GI50,[29],5.51 µM
same,TGI,[29],51.6 µM
same,GI50,[30],5.54 µM
same,TGI,[30],19.4 µM
same,GI50,[31],4.51 µM
same,TGI,[31],22.3 µM
same,GI50,[32],4.5 µM
same,TGI,[32],19.2 µM
same,GI50,[33],9.83 µM
same,TGI,[33],22 µM
same,GI50,[34],7.3 µM
same,TGI,[34],20.1 µM
same,GI50,[35],4.1 µM
same,TGI,[35],15.1 µM
same,GI50,[36],3.48 µM
same,TGI,[36],22.1 µM
same,GI50,[37],10.3 µM
same,TGI,[37],23.1 µM
same,GI50,[38],5.39 µM
same,TGI,[38],20 µM
same,GI50,[39],5.26 µM
same,TGI,[39],21.9 µM
same,GI50,[40],4.43 µM
same,TGI,[40],22.9 µM
same,GI50,[41],3.21 µM
same,TGI,[41],16.5 µM
same,GI50,[42],7.39 µM
same,TGI,[42],21.7 µM
same,GI50,[43],5.58 µM
same,TGI,[43],24.6 µM
same,GI50,[44],5.83 µM
same,TGI,[44],25.6 µM
same,GI50,[45],5.77 µM
same,TGI,[45],19.4 µM
same,GI50,[46],13.4 µM
same,TGI,[46],28.1 µM
same,GI50,[47],5.28 µM
same,TGI,[47],20.7 µM
same,GI50,[48],7.23 µM
same,TGI,[48],24.2 µM
same,GI50,[49],3.79 µM
same,TGI,[49],20.7 µM
same,GI50,[50],5.11 µM
same,TGI,[50],17 µM
same,GI50,[51],4.9 µM
same,TGI,[51],52.9 µM
same,GI50,[52],5.33 µM
same,TGI,[52],18.7 µM
same,GI50,[53],3.69 µM
same,TGI,[53],20.1 µM
same,GI50,[54],3.9 µM
same,TGI,[54],13.6 µM
same,GI50,[55],4.1 µM
same,TGI,[55],19.3 µM
Cc1nc2sccn2c1-c1nc2sccn2c1/C=C1/C(=O)Nc2ccccc21,GI50,[1],2.68 µM
same,TGI,[1],36.8 µM
same,GI50,[2],3.72 µM
same,TGI,[2],15.6 µM
same,GI50,[3],1.7 µM
same,TGI,[3],6.24 µM
same,GI50,[4],3.01 µM
same,TGI,[4],> 100 µM
same,GI50,[5],16.3 µM
same,TGI,[5],91.9 µM
same,GI50,[6],1.5 µM
same,TGI,[6],6.51 µM
same,GI50,[8],5.29 µM
same,TGI,[8],69.4 µM
same,GI50,[9],9.08 µM
same,TGI,[9],> 100 µM
same,GI50,[10],2.12 µM
same,TGI,[10],8.09 µM
same,GI50,[11],5.15 µM
same,TGI,[11],> 100 µM
same,GI50,[12],3.47 µM
same,TGI,[12],63.6 µM
same,GI50,[13],6.18 µM
same,TGI,[13],33.1 µM
same,GI50,[14],3.95 µM
same,TGI,[14],> 100 µM
same,GI50,[15],2.32 µM
same,TGI,[15],46.4 µM
same,GI50,[16],4.85 µM
same,TGI,[16],23.9 µM
same,GI50,[17],3.3 µM
same,TGI,[17],30 µM
same,GI50,[18],3.61 µM
same,TGI,[18],> 100 µM
same,GI50,[19],9.79 µM
same,TGI,[19],> 100 µM
same,GI50,[20],8.3 µM
same,TGI,[20],29.8 µM
same,GI50,[21],7.45 µM
same,TGI,[21],55.3 µM
same,GI50,[22],2.94 µM
same,TGI,[22],12.5 µM
same,GI50,[56],2.4 µM
same,TGI,[56],15.4 µM
same,GI50,[23],0.53 µM
same,TGI,[23],2.52 µM
same,GI50,[25],4.93 µM
same,TGI,[25],89.7 µM
same,GI50,[26],3.09 µM
same,TGI,[26],20.7 µM
same,GI50,[27],4.64 µM
same,TGI,[27],21.5 µM
same,GI50,[28],3.52 µM
same,TGI,[28],23.9 µM
same,GI50,[57],2.04 µM
same,TGI,[57],8.26 µM
same,GI50,[30],1.79 µM
same,TGI,[30],24.7 µM
same,GI50,[31],2.72 µM
same,TGI,[31],11.1 µM
same,GI50,[32],9.44 µM
same,TGI,[32],> 100 µM
same,GI50,[33],2.38 µM
same,TGI,[33],16 µM
same,GI50,[34],5.42 µM
same,TGI,[34],46.2 µM
same,GI50,[35],1.76 µM
same,TGI,[35],14.6 µM
same,GI50,[37],13.5 µM
same,TGI,[37],> 100 µM
same,GI50,[38],1.85 µM
same,TGI,[38],7.27 µM
same,GI50,[39],13.8 µM
same,TGI,[39],> 100 µM
same,GI50,[40],2.96 µM
same,TGI,[40],10.7 µM
same,GI50,[41],1.4 µM
same,TGI,[41],10.2 µM
same,GI50,[42],3.26 µM
same,TGI,[42],70.5 µM
same,GI50,[58],2.63 µM
same,TGI,[58],10.5 µM
same,GI50,[44],11.4 µM
same,TGI,[44],> 100 µM
same,GI50,[45],1.92 µM
same,TGI,[45],7.77 µM
same,GI50,[46],12.9 µM
same,TGI,[46],> 100 µM
same,GI50,[47],2.32 µM
same,TGI,[47],7.61 µM
same,GI50,[48],3.99 µM
same,TGI,[48],> 100 µM
same,GI50,[49],1.96 µM
same,TGI,[49],9.75 µM
same,GI50,[50],7.72 µM
same,TGI,[50],> 100 µM
same,GI50,[51],> 100 µM
same,TGI,[51],> 100 µM
same,GI50,[52],16.8 µM
same,TGI,[52],> 100 µM
same,GI50,[53],3.79 µM
same,TGI,[53],> 100 µM
same,GI50,[54],3.09 µM
same,TGI,[54],13.5 µM
same,GI50,[55],4.54 µM
same,TGI,[55],64.8 µM
